In one series the target is T1, HsHGPRT (Homo sapiens, UniProt P00492).
T1 sequence (P00492 1-218): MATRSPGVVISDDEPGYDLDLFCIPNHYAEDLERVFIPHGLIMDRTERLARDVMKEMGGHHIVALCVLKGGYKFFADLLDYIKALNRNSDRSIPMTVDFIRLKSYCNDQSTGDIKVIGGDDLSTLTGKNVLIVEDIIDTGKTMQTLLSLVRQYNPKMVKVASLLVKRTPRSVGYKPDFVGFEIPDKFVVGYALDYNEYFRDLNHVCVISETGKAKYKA
Briefly: Inhibition analysis of HsHGPRT, IMPDH-coupled assay. The class given is biochemical.

For a further series, the target named is T2, PfHGXPRT (Plasmodium falciparum, UniProt P20035).
T2 sequence (P20035 1-231): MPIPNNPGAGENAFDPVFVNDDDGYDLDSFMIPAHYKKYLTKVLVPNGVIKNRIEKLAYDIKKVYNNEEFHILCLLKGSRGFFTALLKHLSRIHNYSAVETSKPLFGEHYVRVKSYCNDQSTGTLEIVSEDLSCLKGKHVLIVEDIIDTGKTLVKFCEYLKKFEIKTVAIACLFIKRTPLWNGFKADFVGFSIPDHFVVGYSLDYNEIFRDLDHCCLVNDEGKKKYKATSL
As to the kind of experiment: Inhibition analysis of PfHGXPRT, IMPDH-coupled assay. The series is classed as biochemical.

The target in series [1] is T3, T. cruzi HGPRT (Trypanosoma cruzi, UniProt Q4DGA3).
T3 sequence (Q4DGA3 1-221): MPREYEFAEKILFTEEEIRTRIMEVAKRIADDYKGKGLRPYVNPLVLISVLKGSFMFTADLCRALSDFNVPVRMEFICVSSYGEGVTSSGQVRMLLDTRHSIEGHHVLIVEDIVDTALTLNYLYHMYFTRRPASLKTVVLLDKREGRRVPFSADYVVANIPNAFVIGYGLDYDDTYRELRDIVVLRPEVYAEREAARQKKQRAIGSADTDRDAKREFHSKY
Briefly: Screening of T. cruzi HGPRT inhibitors. The class given is biochemical.

The subject of series [2] is T. cruzi HGPRT. Briefly: Screening of T. cruzi HGPRT inhibitors. The following applies: selectivity index: Ki of HsHGPRT divided by appKi of T. cruzi HGPRT. The class given is biochemical, Trypanosoma cruzi.
A further series has as its target T4, TcA (Trypanosoma cruzi, UniProt Q4DRC4).
T4 sequence (Q4DRC4 1-241): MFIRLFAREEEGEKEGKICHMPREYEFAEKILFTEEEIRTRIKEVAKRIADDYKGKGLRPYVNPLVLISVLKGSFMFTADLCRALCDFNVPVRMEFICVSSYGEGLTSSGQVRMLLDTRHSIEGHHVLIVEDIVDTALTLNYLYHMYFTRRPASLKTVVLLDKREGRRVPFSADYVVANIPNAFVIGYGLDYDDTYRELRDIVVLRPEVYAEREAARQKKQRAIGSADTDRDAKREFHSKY
To be noted: cited from earlier work.

Series [3] deals with T5, TcC (Trypanosoma cruzi, UniProt Q4DGA3).
T5 sequence (Q4DGA3 1-221): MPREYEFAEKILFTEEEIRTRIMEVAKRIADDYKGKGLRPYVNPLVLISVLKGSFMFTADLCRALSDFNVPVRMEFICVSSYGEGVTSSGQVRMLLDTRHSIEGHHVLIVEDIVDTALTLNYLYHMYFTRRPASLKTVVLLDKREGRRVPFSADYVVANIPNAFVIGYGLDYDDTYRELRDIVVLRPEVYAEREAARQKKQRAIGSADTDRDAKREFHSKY
Briefly: Isothermal titration calorimetry. The class given is binding. (In general: Isothermal titration calorimetry measures the heat released or taken up as one component is titrated into another.)

Series [4] addresses T5, TcC. As to the kind of experiment: Product inhibition studies of TcC. The class given is biochemical.
Substrate in series [5]: Oc1ncnc2[nH]ncc12
Briefly: Steady-state kinetics of TcC, biosynthetic. The series is classed as biochemical, Trypanosoma cruzi. To be noted: other: biosynthetic reaction, pH 8.3.

Substrate in series [6]: Nc1nc2nc[nH]c2c(=O)[nH]1
Briefly: Steady-state kinetics of TcC, biosynthetic. The series is classed as biochemical, Trypanosoma cruzi. To be noted: other: biosynthetic reaction, pH 8.3.

Substrate in series [7]: O=c1[nH]cnc2nc[nH]c12
As to the kind of experiment: purified protein, by the assay type. The following applies: other: biosynthetic reaction, pH 8.3.

Substrate in series [8]: Nc1nc2nc[nH]c2c(=O)[nH]1
Briefly: Steady-state kinetics of TcA, biosynthetic. The class given is biochemical, Trypanosoma cruzi. The following applies: other: biosynthetic reaction, pH 8.3.

Setting [9] is: HPP-MP biosynthesis, fixed PRPP (1 mM), Lineweaver–Burk plots.
Where [10] appears, read: GMP biosynthesis, variable PRPP (20–215 μM), fixed Gua (70 μM).
[11] abbreviates: IMP biosynthesis, variable PRPP (20–215 μM), fixed Hx (60 μM).

“And” between values parts separate entries of the source, which are not always exact repeats. Identical values can stand only once. Like-named read-outs stand apart in the source and are kept apart here.

Regarding `CN(Cc1c[nH]c2c(=O)[nH]cnc12)[C@H](CO)CCP(=O)(O)O.N.N` [Compound 4], the Ki (commonly a dissociation constant, usually derived from enzyme kinetics or from competition with a known ligand) on HsHGPRT came out at 4600 ± 70 nM; at PfHGXPRT it was 108 ± 30 nM; at T. cruzi HGPRT [1], 1440 ± 30 nM. Further, the SI with T. cruzi HGPRT [2] worked out at 3.2.
As for `Oc1ncnc2[nH]ncc12` [HPP, 4-hydroxypyrazolo(3,4-d)pyrimidine, reference compound], at TcA (setting [9]), the Km (usually the substrate concentration at which the rate is half of its maximum) is 710 ± 130 µM and the kcat is listed as 0.34 ± 0.03 ^c^, ^d s^–1.
As for `O=c1[nH]cnc2nc[nH]c12` [Hx, hypoxanthine], at TcC [3] (ligand concentrations 500- and 900-fold higher than Km), the “binding to free TcC enzyme” value was “could not be detected”.
Consider `O=P(O)(O)OC[C@H]1O[C@H](OP(=O)(O)OP(=O)(O)O)[C@H](O)[C@@H]1O` [PRPP, 5-phospho-α-D-ribose 1-diphosphate], for which the Ki on TcC [4] was 800 ± 100 nM. At TcA (setting [10]), the Km was 32 ± 5 µM and the kcat is given as 32 ^b s^–1. In addition, on TcA (setting [11]), the Michaelis constant (Km) was 31 ± 5 µM and the kcat is 23 ^b s^–1. For the same molecule, the affinity on TcC [3], expressed as Kd, was 142000 ± 1000 nM. For the same molecule, on TcC [3] (apo TcC, 25 °C, pH 8.0), the “ΔG°” value was “–5247 ± 5 cal mol^–1”, the “ΔH°” value turned out to be 5160 ± 450 cal mol^–1 and the “–TΔS°” value was “–10,410 ± 450 cal mol^–1”. In addition, the Ka on TcC [3] (association constant, apo TcC, 25 °C, pH 8.0) was 7070 ± 60 M^–1. The same molecule returned a N on TcC [3] (number of binding sites per monomer, apo TcC, 25 °C, pH 8.0) of 1.2 ± 0.2.

B1: TcC (Trypanosoma cruzi strain CL Brener) (protein)
chain: MPREYEFAEKILFTEEEIRTRIMEVAKRIADDYKGKGLRPYVNPLVLISVLKGSFMFTADLCRALSDFNVPVRMEFICVSSYGEGVTSSGQVRMLLDTRHSIEGHHVLIVEDIVDTALTLNYLYHMYFTRRPASLKTVVLLDKREGRRVPFSADYVVANIPNAFVIGYGLDYDDTYRELRDIVVLRPEVYAEREAARQKKQRAIGSADTDRDAKREFHSKY
Regarding B1, the kcat/Km in series [5] is 10^3 M^–1 s^–1; in series [6], 1 × 10^5 M^–1 s^–1 and 2.5 × 10^6 M^–1 s^–1; in series [7] (TcC), 1 × 10^5 M^–1 s^–1 and 2.1 × 10^6 M^–1 s^–1.

B2: TcA (Trypanosoma cruzi strain CL Brener) (protein)
chain: MFIRLFAREEEGEKEGKICHMPREYEFAEKILFTEEEIRTRIKEVAKRIADDYKGKGLRPYVNPLVLISVLKGSFMFTADLCRALCDFNVPVRMEFICVSSYGEGLTSSGQVRMLLDTRHSIEGHHVLIVEDIVDTALTLNYLYHMYFTRRPASLKTVVLLDKREGRRVPFSADYVVANIPNAFVIGYGLDYDDTYRELRDIVVLRPEVYAEREAARQKKQRAIGSADTDRDAKREFHSKY
In the case of B2, the kcat/Km in series [8] was 1 × 10^5 M^–1 s^–1 and 2.5 × 10^6 M^–1 s^–1; in [7] (TcA), 1 × 10^5 M^–1 s^–1.
